The text below walks through data of BindingDB's records for doi:10.1016/j.bmcl.2007.06.058 (Mahidol University, 2007).

The experiment in a line: Inhibition of rhFGF2-induced cellular proliferation of HUVEC.
Regarding `Cc1[nH]c(/C=C2\C(=O)Nc3cc(-c4ccccc4)ccc32)c(C)c1CCC(=O)O`, the IC50 (in general, the point on the concentration scale where inhibition reaches its midpoint) was above 50 µM.
The result for `COc1cccc(-c2ccc3c(c2)NC(=O)/C3=C\c2[nH]c(C)c(CCC(=O)O)c2C)c1` [3-(5-{[(3Z)-6-(3-methoxyphenyl)-2-oxo-2,3-dihydro-1H-indol-3-ylidene]methyl}-2,4-dimethyl-1H-pyrrol-3-yl)propanoic acid] reads 17.9 µM; that for `COc1cc(OC)cc(-c2ccc3c(c2)NC(=O)/C3=C\c2[nH]c(C)c(CCC(=O)O)c2C)c1` [(Z)-3-(5-((6-(3,5-dimethoxyphenyl)-2-oxoindolin-3-ylidene)methyl)-2,4-dimethyl-1H-pyrrol-3-yl)propanoic acid], 18.2 µM.
